Experimental data reported in the kinase profiling compilation of Christmann-Franck et al. (2016).

Assays:
Test in all cases: radiometric filter-binding kinase assay
AURKA (human) = AURKA (human) (UniProt O14965)
BRSK2 (human) = BRSK2 (human) (UniProt Q8IWQ3)
CDK2 CCNA2 (human) = CDK2 CCNA2 (human) (UniProt P20248+P24941)
CHEK1 (human) = CHEK1 (human) (UniProt O14757)
CHEK2 (human) = CHEK2 (human) (UniProt O96017)
CLK2 (human) = CLK2 (human) (UniProt P49760)
DAPK1 (human) = DAPK1 (human) (UniProt P53355)
EEF2K (human) = EEF2K (human) (UniProt O00418)
EPHB4 (human) = EPHB4 (human) (UniProt P54760)
ERBB4 (human) = ERBB4 (human) (UniProt Q15303)
FLT1 (human) = FLT1 (human) (UniProt P17948)
GCK (human) = GCK (human) (UniProt Q12851)
HIPK1 (human) = HIPK1 (human) (UniProt Q86Z02)
HIPK3 (human) = HIPK3 (human) (UniProt Q9H422)
JAK2 JH1 JH2 (human) = JAK2 JH1 JH2 (human) (UniProt O60674)
MAP3K1 (human) = MAP3K1 (human) (UniProt Q13233)
MAP3K5 (human) = MAP3K5 (human) (UniProt Q99683)

EPHB4 (human), sequence (P54760 whole entry, looked up): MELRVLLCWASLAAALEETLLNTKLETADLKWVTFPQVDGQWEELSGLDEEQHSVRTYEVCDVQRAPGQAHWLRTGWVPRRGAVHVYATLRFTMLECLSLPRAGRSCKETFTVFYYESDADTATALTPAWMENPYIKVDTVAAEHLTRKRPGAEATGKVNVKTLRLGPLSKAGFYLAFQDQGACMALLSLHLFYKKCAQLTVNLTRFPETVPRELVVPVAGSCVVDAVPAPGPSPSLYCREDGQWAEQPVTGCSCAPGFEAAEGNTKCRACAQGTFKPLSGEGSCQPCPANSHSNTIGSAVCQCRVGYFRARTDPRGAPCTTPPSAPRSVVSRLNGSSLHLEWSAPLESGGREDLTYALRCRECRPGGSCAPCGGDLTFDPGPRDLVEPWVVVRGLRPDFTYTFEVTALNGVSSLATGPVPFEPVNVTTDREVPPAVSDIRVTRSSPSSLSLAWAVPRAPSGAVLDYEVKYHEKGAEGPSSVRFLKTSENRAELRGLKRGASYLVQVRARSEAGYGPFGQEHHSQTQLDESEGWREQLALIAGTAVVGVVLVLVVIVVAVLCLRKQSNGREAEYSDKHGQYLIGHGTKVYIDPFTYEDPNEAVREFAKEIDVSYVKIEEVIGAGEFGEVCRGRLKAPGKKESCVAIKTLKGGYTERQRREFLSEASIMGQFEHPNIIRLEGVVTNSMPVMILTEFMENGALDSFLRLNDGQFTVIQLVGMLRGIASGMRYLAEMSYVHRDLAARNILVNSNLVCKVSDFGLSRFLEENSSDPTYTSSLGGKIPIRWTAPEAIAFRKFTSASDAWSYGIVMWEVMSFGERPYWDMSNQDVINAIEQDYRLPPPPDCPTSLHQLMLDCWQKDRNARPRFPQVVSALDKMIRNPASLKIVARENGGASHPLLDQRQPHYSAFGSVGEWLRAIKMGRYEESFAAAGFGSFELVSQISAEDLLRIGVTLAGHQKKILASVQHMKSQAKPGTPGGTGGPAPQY
JAK2 JH1 JH2 (human), sequence (O60674 whole entry, looked up): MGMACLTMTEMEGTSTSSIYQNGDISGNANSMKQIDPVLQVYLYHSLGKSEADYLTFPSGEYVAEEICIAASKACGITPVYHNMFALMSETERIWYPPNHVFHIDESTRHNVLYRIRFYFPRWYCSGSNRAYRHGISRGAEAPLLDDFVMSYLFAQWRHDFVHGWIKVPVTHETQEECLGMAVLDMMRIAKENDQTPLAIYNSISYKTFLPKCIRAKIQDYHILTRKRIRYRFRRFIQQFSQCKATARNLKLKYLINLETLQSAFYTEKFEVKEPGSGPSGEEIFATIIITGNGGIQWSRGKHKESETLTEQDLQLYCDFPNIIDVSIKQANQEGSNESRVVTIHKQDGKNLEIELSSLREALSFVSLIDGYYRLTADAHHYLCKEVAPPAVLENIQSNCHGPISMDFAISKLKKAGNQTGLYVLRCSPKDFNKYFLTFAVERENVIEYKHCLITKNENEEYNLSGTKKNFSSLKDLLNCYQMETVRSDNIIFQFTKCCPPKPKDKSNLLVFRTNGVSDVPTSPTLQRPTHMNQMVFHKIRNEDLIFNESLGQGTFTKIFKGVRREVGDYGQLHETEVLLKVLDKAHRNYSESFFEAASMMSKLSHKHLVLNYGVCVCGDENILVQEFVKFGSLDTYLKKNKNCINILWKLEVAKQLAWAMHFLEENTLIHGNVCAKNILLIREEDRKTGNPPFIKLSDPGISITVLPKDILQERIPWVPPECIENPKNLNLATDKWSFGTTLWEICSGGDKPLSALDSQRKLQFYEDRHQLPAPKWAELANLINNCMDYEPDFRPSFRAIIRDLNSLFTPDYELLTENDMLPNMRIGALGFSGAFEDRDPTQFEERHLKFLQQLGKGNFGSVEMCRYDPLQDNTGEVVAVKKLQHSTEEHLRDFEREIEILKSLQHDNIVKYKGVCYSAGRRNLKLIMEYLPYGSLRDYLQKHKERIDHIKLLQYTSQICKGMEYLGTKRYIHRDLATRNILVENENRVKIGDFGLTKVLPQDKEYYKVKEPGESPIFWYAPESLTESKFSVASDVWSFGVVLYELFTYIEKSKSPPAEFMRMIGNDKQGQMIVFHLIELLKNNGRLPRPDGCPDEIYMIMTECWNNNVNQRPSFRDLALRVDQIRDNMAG
CHEK2 (human), sequence (O96017 whole entry, looked up): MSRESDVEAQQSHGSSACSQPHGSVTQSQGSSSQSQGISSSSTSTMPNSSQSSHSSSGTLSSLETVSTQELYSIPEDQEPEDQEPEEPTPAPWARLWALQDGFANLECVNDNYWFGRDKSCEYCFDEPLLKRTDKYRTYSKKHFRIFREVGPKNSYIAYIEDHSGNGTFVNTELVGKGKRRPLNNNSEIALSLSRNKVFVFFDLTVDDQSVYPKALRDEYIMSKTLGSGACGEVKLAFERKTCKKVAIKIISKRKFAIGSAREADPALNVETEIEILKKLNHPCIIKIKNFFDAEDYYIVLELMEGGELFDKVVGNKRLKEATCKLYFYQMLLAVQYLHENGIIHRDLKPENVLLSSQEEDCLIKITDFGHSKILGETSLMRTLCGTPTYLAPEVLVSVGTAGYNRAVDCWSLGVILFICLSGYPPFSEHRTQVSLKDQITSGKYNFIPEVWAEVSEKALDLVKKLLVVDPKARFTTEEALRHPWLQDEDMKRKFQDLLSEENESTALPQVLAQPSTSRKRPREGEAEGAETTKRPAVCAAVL
AURKA (human), sequence (O14965 whole entry, looked up): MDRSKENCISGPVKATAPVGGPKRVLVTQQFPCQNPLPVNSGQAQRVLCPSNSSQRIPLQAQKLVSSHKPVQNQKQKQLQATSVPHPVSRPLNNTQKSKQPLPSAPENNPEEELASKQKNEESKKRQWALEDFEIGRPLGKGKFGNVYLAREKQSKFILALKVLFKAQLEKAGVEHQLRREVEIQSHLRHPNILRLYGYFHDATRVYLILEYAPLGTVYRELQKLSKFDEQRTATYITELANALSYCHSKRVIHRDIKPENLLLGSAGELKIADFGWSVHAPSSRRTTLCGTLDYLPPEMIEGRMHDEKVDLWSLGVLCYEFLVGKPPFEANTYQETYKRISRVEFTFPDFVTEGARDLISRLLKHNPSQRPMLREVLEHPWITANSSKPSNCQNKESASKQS
BRSK2 (human), sequence (Q8IWQ3 whole entry, looked up): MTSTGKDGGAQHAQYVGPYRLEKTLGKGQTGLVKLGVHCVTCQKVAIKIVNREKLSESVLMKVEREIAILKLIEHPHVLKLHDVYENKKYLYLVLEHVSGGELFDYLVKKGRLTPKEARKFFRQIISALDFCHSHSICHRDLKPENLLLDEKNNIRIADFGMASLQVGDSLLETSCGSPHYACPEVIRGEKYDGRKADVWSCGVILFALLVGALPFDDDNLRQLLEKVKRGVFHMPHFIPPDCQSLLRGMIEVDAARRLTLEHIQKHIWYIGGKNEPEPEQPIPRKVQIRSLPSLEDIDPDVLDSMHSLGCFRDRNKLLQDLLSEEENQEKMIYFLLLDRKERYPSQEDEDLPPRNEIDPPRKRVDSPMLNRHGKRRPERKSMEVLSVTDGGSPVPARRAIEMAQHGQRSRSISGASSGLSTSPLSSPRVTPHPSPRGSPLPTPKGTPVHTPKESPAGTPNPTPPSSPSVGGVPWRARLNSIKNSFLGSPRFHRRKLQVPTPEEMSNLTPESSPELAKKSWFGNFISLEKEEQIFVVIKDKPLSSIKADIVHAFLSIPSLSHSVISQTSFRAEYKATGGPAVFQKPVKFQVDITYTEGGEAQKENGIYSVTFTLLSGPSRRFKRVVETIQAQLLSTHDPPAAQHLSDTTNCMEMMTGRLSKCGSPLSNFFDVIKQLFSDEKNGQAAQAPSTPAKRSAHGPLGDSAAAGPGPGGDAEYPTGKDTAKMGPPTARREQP
EEF2K (human), sequence (O00418 whole entry, looked up): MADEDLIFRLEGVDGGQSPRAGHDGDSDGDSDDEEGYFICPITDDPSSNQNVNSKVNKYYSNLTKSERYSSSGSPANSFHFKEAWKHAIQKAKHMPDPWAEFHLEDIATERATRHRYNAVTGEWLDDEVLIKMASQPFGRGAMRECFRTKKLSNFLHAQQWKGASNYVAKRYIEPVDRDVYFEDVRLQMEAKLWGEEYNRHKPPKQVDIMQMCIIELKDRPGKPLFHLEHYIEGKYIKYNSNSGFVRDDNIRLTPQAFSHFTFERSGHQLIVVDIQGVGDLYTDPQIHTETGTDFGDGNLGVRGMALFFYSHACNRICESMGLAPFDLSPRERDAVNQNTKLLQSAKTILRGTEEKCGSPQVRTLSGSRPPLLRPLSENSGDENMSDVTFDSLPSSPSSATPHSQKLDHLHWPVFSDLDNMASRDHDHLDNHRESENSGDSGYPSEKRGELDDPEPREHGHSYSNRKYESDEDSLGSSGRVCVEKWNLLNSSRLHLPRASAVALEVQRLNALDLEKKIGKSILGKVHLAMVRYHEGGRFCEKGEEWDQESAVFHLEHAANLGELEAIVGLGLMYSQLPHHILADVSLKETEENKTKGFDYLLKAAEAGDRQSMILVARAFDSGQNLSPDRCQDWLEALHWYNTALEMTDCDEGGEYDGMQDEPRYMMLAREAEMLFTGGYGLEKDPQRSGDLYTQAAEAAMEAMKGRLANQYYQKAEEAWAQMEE
CLK2 (human), sequence (P49760 whole entry, looked up): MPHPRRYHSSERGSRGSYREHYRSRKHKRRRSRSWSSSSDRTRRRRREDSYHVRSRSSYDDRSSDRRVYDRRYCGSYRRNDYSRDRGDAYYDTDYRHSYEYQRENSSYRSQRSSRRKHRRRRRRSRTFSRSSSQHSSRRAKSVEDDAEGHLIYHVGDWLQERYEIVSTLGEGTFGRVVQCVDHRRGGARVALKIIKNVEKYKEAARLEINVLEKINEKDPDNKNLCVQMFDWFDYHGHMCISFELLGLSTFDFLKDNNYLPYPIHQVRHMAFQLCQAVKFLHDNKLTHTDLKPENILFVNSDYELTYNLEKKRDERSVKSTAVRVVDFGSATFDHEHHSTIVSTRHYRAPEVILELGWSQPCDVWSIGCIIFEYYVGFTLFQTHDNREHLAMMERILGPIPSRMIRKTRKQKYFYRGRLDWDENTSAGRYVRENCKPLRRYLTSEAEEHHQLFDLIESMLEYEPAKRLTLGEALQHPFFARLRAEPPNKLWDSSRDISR

CC1=C(CO)C(=O)O[C@@H]([C@@H](C)[C@H]2CC[C@H]3[C@@H]4C[C@H]5O[C@]56[C@@H](O)C=CC(=O)[C@]6(C)C4CC[C@]23C)C1 (some centres undefined)
residual activity (AURKA (human); compound 0.1 µM): 108%
residual activity (AURKA (human); compound 1.0 µM): 102%
residual activity (AURKA (human); compound 10.0 µM): 30%
residual activity (BRSK2 (human); compound 0.1 µM): 99%
residual activity (BRSK2 (human); compound 1.0 µM): 103%
residual activity (BRSK2 (human); compound 10.0 µM): 77%
residual activity (CDK2 CCNA2 (human); compound 0.1 µM): 108%
residual activity (CDK2 CCNA2 (human); compound 1.0 µM): 113%
residual activity (CDK2 CCNA2 (human); compound 10.0 µM): 117%
residual activity (CHEK1 (human); compound 0.1 µM): 109%
residual activity (CHEK1 (human); compound 1.0 µM): 114%
residual activity (CHEK1 (human); compound 10.0 µM): 117%
residual activity (CHEK2 (human); compound 0.1 µM): 130%
residual activity (CHEK2 (human); compound 1.0 µM): 116%
residual activity (CHEK2 (human); compound 10.0 µM): 61%
residual activity (CLK2 (human); compound 0.1 µM): 88%
residual activity (CLK2 (human); compound 1.0 µM): 102%
residual activity (CLK2 (human); compound 10.0 µM): 94%
residual activity (DAPK1 (human); compound 0.1 µM): 108%
residual activity (DAPK1 (human); compound 1.0 µM): 95%
residual activity (DAPK1 (human); compound 10.0 µM): 108%
residual activity (EEF2K (human); compound 0.1 µM): 104%
residual activity (EEF2K (human); compound 1.0 µM): 100%
residual activity (EEF2K (human); compound 10.0 µM): 97%
residual activity (EPHB4 (human); compound 0.1 µM): 120%
residual activity (EPHB4 (human); compound 1.0 µM): 119%
residual activity (EPHB4 (human); compound 10.0 µM): 105%
residual activity (ERBB4 (human); compound 0.1 µM): 113%
residual activity (ERBB4 (human); compound 1.0 µM): 109%
residual activity (ERBB4 (human); compound 10.0 µM): 101%
residual activity (FLT1 (human); compound 0.1 µM): 120%
residual activity (FLT1 (human); compound 10.0 µM): 30%
residual activity (GCK (human); compound 0.1 µM): 98%
residual activity (GCK (human); compound 1.0 µM): 106%
residual activity (GCK (human); compound 10.0 µM): 68%
residual activity (HIPK1 (human); compound 0.1 µM): 110%
residual activity (HIPK1 (human); compound 1.0 µM): 112%
residual activity (HIPK1 (human); compound 10.0 µM): 101%
residual activity (HIPK3 (human); compound 0.1 µM): 96%
residual activity (HIPK3 (human); compound 1.0 µM): 94%
residual activity (HIPK3 (human); compound 10.0 µM): 58%
residual activity (JAK2 JH1 JH2 (human); compound 0.1 µM): 98%
residual activity (JAK2 JH1 JH2 (human); compound 1.0 µM): 98%
residual activity (JAK2 JH1 JH2 (human); compound 10.0 µM): 103%
residual activity (MAP3K1 (human); compound 0.1 µM): 112%
residual activity (MAP3K1 (human); compound 1.0 µM): 115%
residual activity (MAP3K1 (human); compound 10.0 µM): 95%
residual activity (MAP3K5 (human); compound 0.1 µM): 104%
residual activity (MAP3K5 (human); compound 1.0 µM): 100%
